Measurements reported in patent US9604979B2, “Pyrroloquinoline quinone alcohol adduct” (Mitsubishi Gas Chemical Company, Inc., priority 2011, dated 2017).

Assays:
[1] = Mixing with coenzyme Q10, color of the mixture; type: physicochemical; conditions: weight ratio 1:1
[2] = High-performance liquid chromatography analysis: return of PQQ alcohol adduct to PQQ; type: physicochemical; conditions: 1 mg/ML adduct in phosphate buffer pH 7.4, left at room temperature for 2 hours, HPLC
Description: The high-performance liquid chromatography analysis of the PQQ alcohol adduct or the like was performed as follows.
A column: YMC-Pack ODS-TMS (5 μm) 150×4.6 mm I.D. was arranged in a high-performance liquid chromatography LC-20A manufactured by Shimadzu Corporation, and detection was performed at 260 nm using an eluent of 100 mM CH3COOH/100 mM CH3COONH4 (30/70, pH 5.1) and an absorption detector.
The PQQ methanol adduct obtained in Example 1 was added to a phosphate buffer (manufactured by Invitrogen pH 7.4) to obtain 1 mg/ML of a PQQ methanol adduct solution. After the PQQ methanol adduct solution was left at room temperature for 2 hours, the high-performance liquid chromatography analysis was performed. […] That is, the PQQ methanol adduct obtained in Example 1 returned to the original PQQ free body by the addition of the phosphate buffer and being left at room temperature for 2 hours.

Escherichia coli JM109 = test: Effect on bacterial growth (viable bacteria count); type: cell-based; conditions: 8 mg sample + 100 μL E. coli JM109 solution (turbidity at 660 nm 0.57), 30 minutes room temperature, then 900 μL PBS, LB agar 30° C., colonies
Description: Escherichia coli JM109 was cultivated overnight in an LB medium at 30° C. The cultivated Escherichia coli JM109 was diluted with a phosphate buffer (PBS) having pH of 7.4 manufactured by GIBCO to obtain a solution 1 having turbidity at 660 nm of 0.57. To 8 mg of each sample shown in Table 2, 100 μL of the solution 1 was added at room temperature, and after 30 minutes, 900 μL of PBS was further added to obtain a solution 2. The solution 2 was planted in a petri dish with an LB agar medium and cultivated at 30° C., and a viable bacteria count was determined from the number of colonies in the solution 2.

[3] = Stability test in polypropylene container in oven (change of color); type: physicochemical
Description: It is to be noted that 100 μL of ODO, Nisshin Oillio was used as an edible fat and oil.

| SMILES | Color of mixture with coenzyme Q10 [1] | PQQ existing in the PQQ methanol adduct solution [2] [mg/mL] | Viable bacteria count (Escherichia coli JM109) | Observation result after 7 days ([3]; 30° C., container's cover opened, 5 mg) | Discoloration in the opened state (container's cover opened) ([3]; Table 5) | Stability in the sealed state of the container ([3]; Table 5) |
| --- | --- | --- | --- | --- | --- | --- |
| O=C([O-])c1cc(C(=O)[O-])c2c(n1)C(=O)C(=O)c1cc(C(=O)O)[nH]c1-2.[Na+].[Na+] [PQQ disodium] | Brown |  |  |  |  |  |
| COC1(O)C(=O)c2cc(C(=O)O)[nH]c2-c2c(C(=O)O)cc(C(=O)O)nc21 (stereo not drawn) [PQQ methanol adduct] | Yellow | 0.92 | 0 | Red powder | immediately discolored to red | stable |
| O=C(O)c1cc(C(=O)O)c2c(n1)C(=O)C(=O)c1cc(C(=O)O)[nH]c1-2 [PQQ free body, Pyrroloquinoline quinone] | Brown |  | 80 |  |  |  |
